Experimental data taken from US11279714B2, “Anti-infective compounds” (priority 2014, dated 2022).
In brackets after ≈: the same amount, converted by molar mass.

Legend:
[1] = tested on: M. tuberculosis H37Rv expressing the green fluorescent protein (H37Rv-GFP); test: microbe, parasite or virus in culture; format: cell-based; conditions: for MIC50: Mycobacterium tuberculosis, H37RV, 120 h, read-out: QUM (MIC50)
[2] = tested on: Raw 264.7 cells infected with H37Rv-GFP; test: microbe, parasite or virus in culture; format: cell-based, M. tuberculosis; conditions: for MIC50: Mycobacterium tuberculosis, H37RV, 120 h, read-out: QIM (MIC50)

O=C(Nc1ccc(N2CCC(C(=O)c3ccc(Cl)cc3)CC2)cc1)c1cc2sc(N3CCOCC3)nc2s1 [Compound 226]
MIC50 [1]: > 20 µM
MIC50 [2]: < 1 µM

Cc1nc2cc(NC(=O)c3cc4sc(N5CCN(CCO)CC5)nc4s3)ccc2o1 [Compound 336]
MIC50 [1]: 1 to 20 µM (≈ 0.444 to 8.87 µg/mL)
MIC50 [2]: < 1 µM

CC(C)(C)OC(=O)N1CCN(c2nc3sc(C(=O)Nc4ccc(-c5ccc(F)cn5)cc4)cc3s2)CC1 [Compound 306]
MIC50 [1]: > 20 µM
MIC50 [2]: < 1 µM

COC(=O)c1ccc(NC(=O)c2cc3nc(N4CCCCC4)sc3s2)cc1 [Compound 13]
MIC50 [1]: 1 to 20 µM (≈ 0.402 to 8.03 µg/mL)
MIC50 [2]: < 1 µM

CCCC(=O)Nc1nc2sc(C(=O)Nc3ccc4oc(C)nc4c3)cc2s1 [Compound 243]
MIC50 [1]: > 20 µM
MIC50 [2]: < 1 µM

O=C(Nc1ccc(-c2ccc(F)nc2)cc1)c1cc2sc(NCCN3CCOCC3)nc2s1 [Compound 288]
MIC50 [1]: < 1 µM
MIC50 [2]: < 1 µM

COc1ccc(NC(=O)c2cc3sc(N4CCNCC4)nc3s2)cc1 [Compound 92]
MIC50 [1]: 1 to 20 µM (≈ 0.374 to 7.49 µg/mL)
MIC50 [2]: 1 to 20 µM (≈ 0.374 to 7.49 µg/mL)

CN(C)C(=O)CC1CCN(c2nc3sc(C(=O)Nc4ccc(F)cc4)cc3s2)CC1 [Compound 331]
MIC50 [1]: < 1 µM
MIC50 [2]: < 1 µM

CN(CC(O)C(F)(F)F)c1nc2sc(C(=O)Nc3ccc(-c4ccc(F)nc4)cc3)cc2s1 (stereo not shown) [Compound 339]
MIC50 [1]: < 1 µM
MIC50 [2]: < 1 µM

O=C(Nc1ccc(-c2ccc(F)nc2)cc1)c1cc2sc(N3CCNCC3)nc2s1 [Compound 289]
MIC50 [1]: 1 to 20 µM (≈ 0.44 to 8.79 µg/mL)
MIC50 [2]: < 1 µM

O=C(Nc1ccc(F)cc1)c1cc2sc(NCCCN3CCOCC3)nc2s1 [Compound 327]
MIC50 [1]: 1 to 20 µM (≈ 0.421 to 8.41 µg/mL)
MIC50 [2]: 1 to 20 µM (≈ 0.421 to 8.41 µg/mL)

CN(CCO)c1nc2sc(C(=O)Nc3ccc(-c4ccc(F)nc4)cc3)cc2s1 [Compound 272]
MIC50 [1]: < 1 µM
MIC50 [2]: < 1 µM

CN1CCN(CCNc2nc3sc(C(=O)Nc4ccc(-c5ccc(F)cn5)cc4)cc3s2)CC1 [Compound 325]
MIC50 [1]: 1 to 20 µM (≈ 0.497 to 9.93 µg/mL)
MIC50 [2]: < 1 µM

O=C(Nc1ccc(-c2ccc(F)cn2)cc1)c1cc2sc(N3CCN4CCCC4C3)nc2s1 (stereo not shown) [Compound 324]
MIC50 [1]: < 1 µM
MIC50 [2]: < 1 µM

COc1ccc(-c2ccc(NC(=O)c3cc4sc(NCCN5CCOCC5)nc4s3)cc2)cn1 [Compound 292]
MIC50 [1]: 1 to 20 µM (≈ 0.496 to 9.91 µg/mL)
MIC50 [2]: < 1 µM

Cc1ccc(-c2ccc(NC(=O)c3cc4sc(N5CCC(C(=O)N(C)C)CC5)nc4s3)cc2)nc1.Cl [Compound 258]
QUM (MIC50, uM) [1]: ++ (++ indicates between 1-20 uM)
QIM (MIC50, uM) [2]: +++ (+++ indicates <1 uM)

O=C(Nc1ccc2[nH]cnc2c1)c1cc2sc(N3CCOCC3)nc2s1 [Compound 113]
MIC50 [1]: > 20 µM
MIC50 [2]: > 20 µM

Cc1nc2cc(NC(=O)c3cc4sc(N5CCC(NC(=O)OC(C)(C)C)CC5)nc4s3)ccc2o1 [Compound 233]
MIC50 [1]: 1 to 20 µM (≈ 0.514 to 10.3 µg/mL)
MIC50 [2]: < 1 µM

CN(C)C(=O)[C@H]1CCN(c2nc3sc(C(=O)Nc4ccc(-c5ccc(F)nc5)cc4)cc3s2)C1 [Compound 298]
MIC50 [1]: < 1 µM
MIC50 [2]: < 1 µM

O=C(O)c1ccc(NC(=O)c2cc3sc(N4CCCCC4)nc3s2)cc1 [Compound 51]
MIC50 [1]: 1 to 20 µM (≈ 0.387 to 7.75 µg/mL)
MIC50 [2]: 1 to 20 µM (≈ 0.387 to 7.75 µg/mL)

O=C(Nc1ccc(Oc2ccc(Cl)cc2)cc1)c1cc2sc(N3CCNCC3)nc2s1 [Compound 345]
MIC50 [1]: 1 to 20 µM (≈ 0.471 to 9.42 µg/mL)
MIC50 [2]: < 1 µM

Cc1nc2cc(NC(=O)c3cc4sc(N5CCC(CC(=O)N(C)C)CC5)nc4s3)ccc2o1 [Compound 307]
MIC50 [1]: < 1 µM
MIC50 [2]: < 1 µM

Cc1nc2cc(NC(=O)c3cc4sc(N(CCO)C(C)C)nc4s3)ccc2o1 [Compound 232]
MIC50 [1]: 1 to 20 µM (≈ 0.417 to 8.33 µg/mL)
MIC50 [2]: < 1 µM

COc1ccc(NC(=O)c2cc3sc(N4CCc5cc(OC)ccc5C4)nc3s2)cc1 [Compound 168]
MIC50 [1]: 1 to 20 µM (≈ 0.452 to 9.03 µg/mL)
MIC50 [2]: < 1 µM

CN(C)C(=O)C1CCN(c2nc3sc(C(=O)Nc4ccc5oc(-c6ccc(Cl)cc6)nc5c4)cc3s2)CC1 [Compound 214]
MIC50 [1]: > 20 µM
MIC50 [2]: < 1 µM

CC(C)(C)CC(=O)NC1CCN(c2nc3sc(C(=O)Nc4ccc(-c5ccc(F)cn5)cc4)cc3s2)CC1 [Compound 349]
MIC50 [1]: > 20 µM
MIC50 [2]: < 1 µM

Cc1nc2cc(NC(=O)c3cc4ccc(N5CCOCC5)nc4s3)ccc2o1 [Compound 176]
MIC50 [1]: > 20 µM
MIC50 [2]: > 20 µM

CN(C)C(=O)[C@@H]1CCN(c2nc3sc(C(=O)Nc4ccc(F)cc4)cc3s2)C1 [Compound 309]
MIC50 [1]: 1 to 20 µM (≈ 0.419 to 8.37 µg/mL)
MIC50 [2]: < 1 µM

Cc1nc2cc(NC(=O)c3cc4sc(N5CC(C(=O)N(C)C)C5)nc4s3)ccc2o1 [Compound 244]
MIC50 [1]: > 20 µM
MIC50 [2]: < 1 µM

COc1ccc(CNc2nc3sc(C(=O)Nc4ccc5oc(C)nc5c4)cc3s2)cc1 [Compound 239]
MIC50 [1]: 1 to 20 µM (≈ 0.451 to 9.01 µg/mL)
MIC50 [2]: < 1 µM

O=C(Nc1ccc(F)cc1)c1cc2sc(N3CCC(Oc4ccc(Cl)cc4)CC3)nc2s1 [Compound 235]
MIC50 [1]: > 20 µM
MIC50 [2]: < 1 µM

O=C(Nc1ccc(-c2ccc(F)nc2)cc1)c1cc2sc(NCCN3CCCCC3)nc2s1 [Compound 329]
MIC50 [1]: 1 to 20 µM (≈ 0.482 to 9.63 µg/mL)
MIC50 [2]: < 1 µM
